Measurements as given in patent publication US10364226B2, “Pyridazinone compounds and uses thereof” (priority 2013, dated 2019).

Target: EN PA (Influenza A virus, UniProt P15659)
Test: EN PA FRET Inhibition Assay
Format: biochemical
Conditions: read-out: Potency

Compound	IC50 [nM]
CNC(=O)c1nn(CC(c2ccccc2)C2CCCCC2)cc(O)c1=O (centres unmarked) [Compound 659]	100 to 1000
O=C(NC1CCC1)c1nn(CC2(c3cccc(C(F)(F)F)c3)CCCC2)cc(O)c1=O [Compound 515]	100 to 1000
O=C(NCc1ccc(F)c(Cl)c1)c1nn(CC2(c3ccc(Cl)c(Cl)c3)CCCC2)cc(O)c1=O [Compound 784]	100 to 1000
CN(C)C(=O)c1nn(CC2(c3cccc(C(F)(F)F)c3)CCCC2)cc(O)c1=O [Compound 504]	≥ 1000
CC(C)(C)NC(=O)c1nn(CC2(c3ccc4ccccc4c3)CCCC2)cc(O)c1=O [Compound 829]	< 100
O=C(O)c1nn(-c2ccc3c(c2)CCC3)cc(O)c1=O [Compound 10]	100 to 1000
CNC(=O)c1nn(CC2(c3ccc4cc(C)ccc4c3)CCCC2)cc(O)c1=O [Compound 879]	< 100
O=C(O)c1nn(CC2(c3cccc(C(F)(F)F)c3)CCCC2)cc(O)c1=O [Compound 406]	< 100
CNC(=O)c1nn(CC2(n3cc(Cl)c4cccnc43)CCCC2)cc(O)c1=O [Compound 743]	< 100
C[C@@H](NC(=O)c1nn(CC2(n3cc(Cl)c4cccnc43)CCCC2)cc(O)c1=O)C(F)(F)F [Compound 771]	100 to 1000
O=C(O)c1nn(-c2ccccc2N2CCCC(c3ccccc3)C2)cc(O)c1=O (centres unmarked) [Compound 211]	100 to 1000
O=C1NCCCCCOc2cccc(c2)C2(CCCC2)Cn2cc(O)c(=O)c1n2 [Compound 895]	< 100
CNC(=O)c1nn(CCc2ccccc2OC)cc(O)c1=O [Compound 604]	≥ 1000
CNC(=O)c1nn(CC2(c3ccc4cccnc4c3)CCCC2)cc(O)c1=O [Compound 849]	< 100
O=C(NC1CCCC1)c1nn(CC2(c3cccc(C(F)(F)F)c3)CCCC2)cc(O)c1=O [Compound 514]	100 to 1000
O=C(c1nn(CC2(n3cc(Cl)c4cccnc43)CCCC2)cc(O)c1=O)N1CCC1 [Compound 794]	< 100
O=C(O)c1nn(CCc2ccccc2)cc(O)c1=O [Compound 401]	100 to 1000

Compound	IC50 [nM]
Cn1cc(CNC(=O)c2nn(CC3(c4cccc(C(F)(F)F)c4)CCCC3)cc(O)c2=O)cn1 [Compound 646]	< 100
CNC(=O)c1nn(CC2(n3ccc4ccc(Cl)cc43)CCCC2)cc(O)c1=O [Compound 860]	< 100
CNC(=O)c1nn(CC2(c3cccc4ccccc34)CCCC2)cc(O)c1=O [Compound 749]	< 100
CNC(=O)c1nn(CC2(n3cc(-c4ccccc4)c4cccnc43)CCCC2)cc(O)c1=O [Compound 742]	< 100
O=C(NC1CCCCC1)c1nn(CC2(c3cccc(C(F)(F)F)c3)CCCC2)cc(O)c1=O [Compound 516]	100 to 1000
CNC(=O)c1nn(CC2(n3cc(C(=O)NC)c4cccnc43)CCCC2)cc(O)c1=O [Compound 880]	< 100
CNC(=O)c1nn(CC2(c3cc(F)c4ncccc4c3)CCCC2)cc(O)c1=O [Compound 847]	< 100
CNC(=O)c1nn(CC(C)(C)c2cccc(C(F)(F)F)c2)cc(O)c1=O [Compound 645]	< 100
CNC(=O)c1nn(CC2(n3cc(C)c4cccnc43)CCCC2)cc(OC(=O)N(C)C)c1=O [Compound 765]	≥ 1000
CNC(=O)c1nn(CC2(n3ccc4ccccc43)CCCC2)cc(O)c1=O [Compound 850]	< 100
Cc1cn(C2(Cn3cc(O)c(=O)c(C(=O)NCC4(CO)CCCC4)n3)CCCC2)c2ncccc12 [Compound 822]	< 100
CNC(=O)c1nn(CC2(c3cc(C)cc4ncccc34)CCCC2)cc(O)c1=O [Compound 889]	< 100
CON(C)C(=O)c1nn(CC2(n3cc(C)c4cccnc43)CCCC2)cc(O)c1=O [Compound 774]	< 100
CNC(=O)c1nn(CC2(c3ccc(-c4ccccc4)cc3)CCCC2)cc(O)c1=O [Compound 686]	100 to 1000
CCOC(=O)c1nn(CC2(c3cccc(C(F)(F)F)c3)CCCC2)cc(O)c1=O [Compound 405]	≥ 1000
CNC(=O)c1nn(CC2(n3cc(-c4ccccc4)c4cccnc43)CCCC2)cc(O)c1=O [Compound 671]	100 to 1000
CCC(=O)c1nn(CC2(n3cc(C)c4cccnc43)CCCC2)cc(O)c1=O [Compound 827]	< 100

Test system: Influenza strain A549 A/WSN/33 (H1N1)
Test: Influenza Antiviral Assay
Format: cell-based, Influenza A virus
Conditions: Influenza A virus, A549, 20 h, neuraminidase fluorescence readout, read-out: % Inhibition

Compound	EC50 [nM]
CNC(=O)c1nn(CC(c2ccccc2)C2CCCCC2)cc(O)c1=O (centres unmarked) [Compound 659]	> 100000
O=C(NC1CCC1)c1nn(CC2(c3cccc(C(F)(F)F)c3)CCCC2)cc(O)c1=O [Compound 515]	> 100000
O=C(NCc1ccc(F)c(Cl)c1)c1nn(CC2(c3ccc(Cl)c(Cl)c3)CCCC2)cc(O)c1=O [Compound 784]	< 20000
CN(C)C(=O)c1nn(CC2(c3cccc(C(F)(F)F)c3)CCCC2)cc(O)c1=O [Compound 504]	20000 to 100000
CC(C)(C)NC(=O)c1nn(CC2(c3ccc4ccccc4c3)CCCC2)cc(O)c1=O [Compound 829]	< 20000
O=C(O)c1nn(-c2ccc3c(c2)CCC3)cc(O)c1=O [Compound 10]	> 100000
CNC(=O)c1nn(CC2(c3ccc4cc(C)ccc4c3)CCCC2)cc(O)c1=O [Compound 879]	< 20000
O=C(O)c1nn(CC2(c3cccc(C(F)(F)F)c3)CCCC2)cc(O)c1=O [Compound 406]	< 20000
CNC(=O)c1nn(CC2(n3cc(Cl)c4cccnc43)CCCC2)cc(O)c1=O [Compound 743]	< 20000
C[C@@H](NC(=O)c1nn(CC2(n3cc(Cl)c4cccnc43)CCCC2)cc(O)c1=O)C(F)(F)F [Compound 771]	< 20000
O=C(O)c1nn(-c2ccccc2N2CCCC(c3ccccc3)C2)cc(O)c1=O (centres unmarked) [Compound 211]	20000 to 100000
O=C1NCCCCCOc2cccc(c2)C2(CCCC2)Cn2cc(O)c(=O)c1n2 [Compound 895]	< 20000
CNC(=O)c1nn(CCc2ccccc2OC)cc(O)c1=O [Compound 604]	> 100000
CNC(=O)c1nn(CC2(c3ccc4cccnc4c3)CCCC2)cc(O)c1=O [Compound 849]	< 20000
O=C(NC1CCCC1)c1nn(CC2(c3cccc(C(F)(F)F)c3)CCCC2)cc(O)c1=O [Compound 514]	< 20000
O=C(c1nn(CC2(n3cc(Cl)c4cccnc43)CCCC2)cc(O)c1=O)N1CCC1 [Compound 794]	< 20000
O=C(O)c1nn(CCc2ccccc2)cc(O)c1=O [Compound 401]	> 100000

Compound	EC50 [nM]
Cn1cc(CNC(=O)c2nn(CC3(c4cccc(C(F)(F)F)c4)CCCC3)cc(O)c2=O)cn1 [Compound 646]	< 20000
CNC(=O)c1nn(CC2(n3ccc4ccc(Cl)cc43)CCCC2)cc(O)c1=O [Compound 860]	< 20000
CNC(=O)c1nn(CC2(c3cccc4ccccc34)CCCC2)cc(O)c1=O [Compound 749]	< 20000
O=C(NC1CCCCC1)c1nn(CC2(c3cccc(C(F)(F)F)c3)CCCC2)cc(O)c1=O [Compound 516]	< 20000
CNC(=O)c1nn(CC2(n3cc(C(=O)NC)c4cccnc43)CCCC2)cc(O)c1=O [Compound 880]	> 100000
CNC(=O)c1nn(CC2(c3cc(F)c4ncccc4c3)CCCC2)cc(O)c1=O [Compound 847]	> 100000
CNC(=O)c1nn(CC(C)(C)c2cccc(C(F)(F)F)c2)cc(O)c1=O [Compound 645]	< 20000
CNC(=O)c1nn(CC2(n3cc(C)c4cccnc43)CCCC2)cc(OC(=O)N(C)C)c1=O [Compound 765]	20000 to 100000
CNC(=O)c1nn(CC2(n3ccc4ccccc43)CCCC2)cc(O)c1=O [Compound 850]	< 20000
Cc1cn(C2(Cn3cc(O)c(=O)c(C(=O)NCC4(CO)CCCC4)n3)CCCC2)c2ncccc12 [Compound 822]	< 20000
CNC(=O)c1nn(CC2(c3cc(C)cc4ncccc34)CCCC2)cc(O)c1=O [Compound 889]	< 20000
CON(C)C(=O)c1nn(CC2(n3cc(C)c4cccnc43)CCCC2)cc(O)c1=O [Compound 774]	< 20000
CNC(=O)c1nn(CC2(c3ccc(-c4ccccc4)cc3)CCCC2)cc(O)c1=O [Compound 686]	< 20000
CCOC(=O)c1nn(CC2(c3cccc(C(F)(F)F)c3)CCCC2)cc(O)c1=O [Compound 405]	< 20000
CNC(=O)c1nn(CC2(n3cc(-c4ccccc4)c4cccnc43)CCCC2)cc(O)c1=O [Compound 671]	< 20000
CCC(=O)c1nn(CC2(n3cc(C)c4cccnc43)CCCC2)cc(O)c1=O [Compound 827]	< 20000

Same assay, conditions: neuraminidase fluorescence readout, read-out: % Inhibition

Compound	EC50 [nM]
CNC(=O)c1nn(CC2(n3cc(-c4ccccc4)c4cccnc43)CCCC2)cc(O)c1=O [Compound 742]	< 20000
